Test results as given in ChEMBL document CHEMBL1201862, “PubChem BioAssay data set” (2004).
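1) Cells in 96-well plates. 2) Compound, 48 h, 5 concentrations. 3) Linear interpolation between surrounding doses. 4) Unreached endpoint = highest concentration. GI50: concentration for 50% inhibition of growth.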 Active and inactive are the calls of the source. Rule as the data show it: active = GI50 up to about 1.1 µM and inactive = higher.

Assays:
Experiment in all cases: DTP human tumour cell line panel, 48 h
[1] = test system: TK-10
[2] = test system: HL-60
[3] = test system: K562
[4] = test system: HOP-92
[5] = test system: NCI-H460
[6] = test system: HCT-116
[7] = test system: MOLT-4
[8] = test system: HT-29
[9] = test system: SK-MEL-5
[10] = test system: U-251
[11] = test system: SN12C
[12] = test system: CCRF-CEM
[13] = test system: RXF 393
[14] = test system: OVCAR-8
[15] = test system: OVCAR-4
[16] = test system: NCI-H226
[17] = test system: OVCAR-5
[18] = test system: MCF7
[19] = test system: NCI/ADR-RES
[20] = test system: CAKI-1

O=C(NN1C(=O)C(Cl)C1c1ccccc1O)c1ccccc1O (configuration not stated)
GI50 [1]: 47.5 µM (inactive)
GI50 [2]: 6.11 µM (inactive)
GI50 [3]: 32.4 µM (inactive)
GI50 [4]: > 100 µM (inactive)
GI50 [5]: 5.33 µM (inactive)
GI50 [6]: 3.69 µM (inactive)
GI50 [7]: 23.2 µM (inactive)
GI50 [8]: 6.61 µM (inactive)
GI50 [9]: 29.4 µM (inactive)
GI50 [10]: 16.2 µM (inactive)
GI50 [11]: 89.5 µM (inactive)
GI50 [12]: 5.12 µM (inactive)
GI50 [13]: 63.5 µM (inactive)
GI50 [14]: 26.4 µM (inactive)
GI50 [15]: 22.5 µM (inactive)

Cc1ccc(N2C(=O)/C(=C3\SC(C(N)=O)=C(N)N3c3ccccc3)SC2=S)cc1
GI50 [1]: > 100 µM (inactive)
GI50 [2]: > 100 µM (inactive)
GI50 [3]: 78.7 µM (inactive)
GI50 [4]: 12.1 µM (inactive)
GI50 [16]: 37.3 µM (inactive)
GI50 [17]: 2.21 µM (inactive)
GI50 [5]: > 100 µM (inactive)
GI50 [6]: 71 µM (inactive)
GI50 [7]: > 100 µM (inactive)
GI50 [8]: 44.3 µM (inactive)
GI50 [9]: > 100 µM (inactive)
GI50 [10]: 71.6 µM (inactive)
GI50 [12]: > 100 µM (inactive)
GI50 [14]: 46 µM (inactive)

c1ccc2c3c(ccc2c1)-c1[nH]ncc1CCO3
GI50 [2]: 14.6 µM (inactive)
GI50 [3]: 32.8 µM (inactive)
GI50 [4]: 27.5 µM (inactive)
GI50 [17]: 25.8 µM (inactive)
GI50 [5]: 25.6 µM (inactive)
GI50 [6]: 32.4 µM (inactive)
GI50 [7]: 20.1 µM (inactive)
GI50 [8]: 32.5 µM (inactive)
GI50 [18]: 32.9 µM (inactive)
GI50 [19]: 38.2 µM (inactive)
GI50 [9]: > 46.9 µM (inactive)
GI50 [10]: 18.4 µM (inactive)
GI50 [11]: 29.2 µM (inactive)
GI50 [12]: 32 µM (inactive)
GI50 [13]: 33.3 µM (inactive)
GI50 [14]: 34.4 µM (inactive)
GI50 [20]: 33.4 µM (inactive)
GI50 [15]: 29.7 µM (inactive)

Cc1ccc(S(=O)(=O)OC[C@@H]2CO2)cc1
GI50 [1]: 44.6 µM (inactive)
GI50 [2]: > 100 µM (inactive)
GI50 [3]: > 100 µM (inactive)
GI50 [4]: > 100 µM (inactive)
GI50 [16]: > 100 µM (inactive)
GI50 [17]: > 100 µM (inactive)
GI50 [5]: > 100 µM (inactive)
GI50 [6]: > 100 µM (inactive)
GI50 [7]: > 100 µM (inactive)
GI50 [8]: > 100 µM (inactive)
GI50 [9]: > 100 µM (inactive)
GI50 [11]: > 100 µM (inactive)
GI50 [12]: > 100 µM (inactive)
GI50 [13]: > 100 µM (inactive)
GI50 [14]: > 100 µM (inactive)
GI50 [20]: > 100 µM (inactive)
GI50 [15]: > 100 µM (inactive)

O=C(c1ccccc1)c1nc2ccc(Cl)cc2c2c1CCCO2
GI50 [1]: > 100 µM (inactive)
GI50 [3]: > 100 µM (inactive)
GI50 [16]: > 100 µM (inactive)
GI50 [17]: > 100 µM (inactive)
GI50 [5]: > 100 µM (inactive)
GI50 [6]: > 100 µM (inactive)
GI50 [7]: > 100 µM (inactive)
GI50 [8]: > 100 µM (inactive)
GI50 [10]: > 100 µM (inactive)
GI50 [11]: > 100 µM (inactive)
GI50 [13]: 56.2 µM (inactive)
GI50 [14]: > 100 µM (inactive)
GI50 [20]: > 100 µM (inactive)
GI50 [15]: > 100 µM (inactive)

O=C1C(Br)=CC2([N+](=O)[O-])CCNC3=C(C4=NCCc5c[nH]c(c54)C3=O)C2=C1Br (configuration not stated)
GI50 [2]: 0.206 µM (active)
GI50 [3]: 0.424 µM (active)
GI50 [4]: 0.811 µM (active)
GI50 [16]: 2.38 µM (inactive)
GI50 [17]: 1.1 µM (active)
GI50 [5]: 3.39 µM (inactive)
GI50 [6]: 0.317 µM (active)
GI50 [7]: 1.14 µM (inactive)
GI50 [8]: 0.553 µM (active)
GI50 [18]: 0.0562 µM (active)
GI50 [19]: 0.128 µM (active)
GI50 [9]: 0.589 µM (active)
GI50 [10]: 1.51 µM (inactive)
GI50 [11]: 1.78 µM (inactive)
GI50 [12]: 0.304 µM (active)
GI50 [13]: 2.39 µM (inactive)
GI50 [14]: 0.365 µM (active)
GI50 [20]: 1.49 µM (inactive)
GI50 [15]: 1.76 µM (inactive)

Cc1c2cnccc2c(C)c2c1c1ccccc1n2CC1CO1 (configuration not stated)
GI50 [2]: 0.0283 µM (active)
GI50 [3]: 0.859 µM (active)
GI50 [4]: 1.81 µM (inactive)
GI50 [16]: 1.76 µM (inactive)
GI50 [17]: 2.05 µM (inactive)
GI50 [5]: 0.454 µM (active)
GI50 [6]: 0.327 µM (active)
GI50 [7]: 0.0213 µM (active)
GI50 [8]: 1.72 µM (inactive)
GI50 [18]: 0.0422 µM (active)
GI50 [19]: 0.826 µM (active)
GI50 [9]: 1.1 µM (active)
GI50 [10]: 1.6 µM (inactive)
GI50 [11]: 0.174 µM (active)
GI50 [12]: 0.0389 µM (active)
GI50 [13]: 0.427 µM (active)
GI50 [14]: 0.443 µM (active)
GI50 [20]: 1.34 µM (inactive)
GI50 [15]: 1.99 µM (inactive)

CN1NC(c2ccc(Cl)cc2)=C(C#N)C(=O)CC1c1ccccc1 (configuration not stated)
GI50 [1]: > 100 µM (inactive)
GI50 [2]: > 100 µM (inactive)
GI50 [4]: > 100 µM (inactive)
GI50 [16]: > 10 µM (inactive)
GI50 [17]: > 100 µM (inactive)
GI50 [5]: > 100 µM (inactive)
GI50 [6]: > 100 µM (inactive)
GI50 [8]: > 100 µM (inactive)
GI50 [9]: 72.9 µM (inactive)
GI50 [10]: > 100 µM (inactive)
GI50 [13]: > 100 µM (inactive)
GI50 [20]: > 100 µM (inactive)
GI50 [15]: > 100 µM (inactive)

O=C(Cc1nc2ccc(C(=O)c3ccccc3)cc2nc1O)C(=O)Nc1nc2ccccc2[nH]1
GI50 [1]: 49.3 µM (inactive)
GI50 [2]: 35.8 µM (inactive)
GI50 [4]: 23 µM (inactive)
GI50 [5]: 46.5 µM (inactive)
GI50 [6]: 51.6 µM (inactive)
GI50 [7]: 42.8 µM (inactive)
GI50 [8]: 52.7 µM (inactive)
GI50 [9]: 31 µM (inactive)
GI50 [11]: > 100 µM (inactive)
GI50 [12]: 38.3 µM (inactive)
GI50 [14]: 55.1 µM (inactive)
GI50 [20]: 40.2 µM (inactive)
GI50 [15]: 61.7 µM (inactive)
